US20100168146A1, “Composition Comprising (R)-Spiro[L-Azabicyclo[2.2.2]Octane-3,2'(3'H)-Furo[2,3-B]Pyridine (AZD0328) and its Use in the Treatment of Alzheimer's Disease, ADHD or Cognitive Dysfunction” (priority 2008, published 2010)
“Also recorded” adds a separate entry of the source.

Assays:
Ames test = experiment: Ames test; type: cell-based
Excerpt: The genotoxic potential of AZD0328 has been evaluated in the Ames test and in the Mouse lymphoma test. AZD0328 was not mutagenic in either of these tests.

[1] = PK/TK multiple dose studies; type: in vivo; details: rabbit 2F, DMB15, subcutaneous 1.15 mg/kg (3 μmol/kg), day 18
Excerpt: This section provides a summary of the pharmacokinetic and metabolism properties of AZD0328 derived from in vivo studies. […] The derived PK/TK parameters from these studies are presented in Table 4 for single dose studies (DMR4, 0619LR, 20030191PCR, DM016, DMB10, DMW12, 50190, 0190DD and 03.330/1), and are presented in Table 5 multiple dose PK/TK studies (DMR4, 0612AR, DMB15, 50190, 0190DD and 0295AD).

FFX rats = experiment: Hippocampal LTP in vivo in FFX rats; parameters: species or system rat; details: 0.3 mg/kg
Experimental: AZD0328 reversed a deficit in hippocampal long-term potentiation (LTP) in FFX Sprague Dawley rats (Table 2). […] 0.3 mg/kg of AZD0328 was ineffective in this test.

dogs [2] = experiment: Maximum tolerated dose and 7 days oral toxicity; type: in vivo; details: dog
Experimental: Single doses of 4.5 to 17 mg/kg were administrated to test AZD0328 to 2 male and 2 female dogs. […] Signs of nausea and at the higher doses vomiting was seen. In the 7 days repeated dose study 2 male and 2 female dogs were given 35 mg/kg per day. However, vomiting was the major clinical sign recorded during the study.

rhesus monkeys = experiment: Spatial delayed response (SDR) task; type: in vivo, rhesus monkey (macaca mulatta)
Excerpt: AZD0328 at low doses improved performance in the spatial delayed response test in monkeys. Rhesus monkeys were trained in a spatial delayed response task. In this task, food-motivated monkeys observed one of several spatially-displaced wells being baited with a food reward. After a brief delay during which a shutter is drawn and the wells are covered, the monkey must indicate the position of the baited well to receive the food reward. The performance of groups of monkeys was titrated into a narrow range by changing the number of wells or the duration of the delay. Monkeys were tested extensively to establish baseline performance before being administered drug or vehicle. Intramuscular administration of 0.00048 or 0.0016 mg/kg AZD0328 evoked a sustained increase in the percentage of correct responses monkeys made when compared with responses of vehicle-treated monkeys.
Rhesus monkey were trained in a spatial delayed response task. Middle doses of AZD0328 (0.0016 and 0.00048 mg/kg im) evoked a sustained improvement in rhesus monkey performance, while a higher dose (0.48 mg/kg) and a lower dose (0.000016 mg/kg) transiently impaired performance of the task (Table 2).

rats [3] = experiment: Spontaneous locomotor activity; type: in vivo; details: Wistar rat, oral gavage, 90 min session
Experimental: AZD0328 was investigated for possible effects on spontaneous locomotor activity in rats (n=6/group)(Table 3). Animals were individually placed in locomotor activity boxes for a 90 min test session. Movements within the box were measured by infrared beams, and activity was assessed as ambulatory counts, stereotypic counts, vertical counts, and resting time.

Pgp transporter = Pgp transporter (Homo sapiens, UniProt P08183); experiment: Digoxin transport, cell-based assay; type: in vitro ADME
Chain of Pgp transporter (P08183 whole entry): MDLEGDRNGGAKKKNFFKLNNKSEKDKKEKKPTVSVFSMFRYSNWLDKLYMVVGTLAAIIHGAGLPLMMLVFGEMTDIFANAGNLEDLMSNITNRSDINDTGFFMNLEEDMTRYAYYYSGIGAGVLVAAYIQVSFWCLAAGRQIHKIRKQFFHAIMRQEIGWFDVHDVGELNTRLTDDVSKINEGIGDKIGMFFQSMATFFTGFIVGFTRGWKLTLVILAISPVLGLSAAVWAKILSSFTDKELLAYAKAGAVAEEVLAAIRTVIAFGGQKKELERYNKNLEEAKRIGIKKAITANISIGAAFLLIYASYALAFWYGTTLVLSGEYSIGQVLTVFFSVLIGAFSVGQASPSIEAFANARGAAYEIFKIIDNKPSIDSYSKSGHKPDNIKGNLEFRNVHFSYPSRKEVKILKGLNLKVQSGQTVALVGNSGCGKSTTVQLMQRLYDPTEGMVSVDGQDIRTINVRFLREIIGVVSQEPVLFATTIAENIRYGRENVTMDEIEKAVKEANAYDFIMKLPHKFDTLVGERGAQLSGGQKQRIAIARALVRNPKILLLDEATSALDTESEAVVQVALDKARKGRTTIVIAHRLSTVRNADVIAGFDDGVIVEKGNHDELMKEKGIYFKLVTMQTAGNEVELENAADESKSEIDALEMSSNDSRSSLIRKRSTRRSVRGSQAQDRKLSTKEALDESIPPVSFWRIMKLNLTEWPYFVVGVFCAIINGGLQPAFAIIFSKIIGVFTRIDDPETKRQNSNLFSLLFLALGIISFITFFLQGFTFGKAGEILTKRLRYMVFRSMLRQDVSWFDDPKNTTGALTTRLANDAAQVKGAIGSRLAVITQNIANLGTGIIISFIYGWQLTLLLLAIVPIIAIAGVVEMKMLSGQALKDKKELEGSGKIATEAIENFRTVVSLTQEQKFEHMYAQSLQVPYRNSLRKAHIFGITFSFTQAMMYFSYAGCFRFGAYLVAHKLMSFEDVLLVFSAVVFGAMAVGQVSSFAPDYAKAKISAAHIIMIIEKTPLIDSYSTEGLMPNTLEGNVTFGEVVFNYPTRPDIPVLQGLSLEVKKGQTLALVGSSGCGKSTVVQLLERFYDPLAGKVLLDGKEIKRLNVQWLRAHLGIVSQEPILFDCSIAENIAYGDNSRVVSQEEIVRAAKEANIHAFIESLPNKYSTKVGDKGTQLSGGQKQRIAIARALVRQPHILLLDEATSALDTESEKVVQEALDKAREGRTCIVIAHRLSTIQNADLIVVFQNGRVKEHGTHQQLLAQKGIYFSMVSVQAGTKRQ
Excerpt: The 50% bioavailability of AZD0328 in human was conservatively selected based on the observations from rat, dog and monkey.

rats [4] = experiment: 1 month repeated-dose oral toxicity; type: in vivo; details: rat, one month, high dose 65 mg/kg/day (300 μmol/kg/day)
Experimental: The objective of this investigation was to study the toxicity of AZD0328 given orally to rats for 1 month. Four groups of rats, each consisting of 10 males and 10 females, were given 0, 2.2, 15 and 65 mg/kg/day ([…]) of AZD0328.

dogs [5] = experiment: Cardiovascular telemetry / ECG; type: in vivo; details: dog
Experimental: The cardiovascular effects of orally administered AZD0328 were assessed dogs implanted with telemetry transmitters (Table 3). The main purpose of the study was to evaluate effects on the QT interval of the ECG during a 7-days dosing period followed by 5 days of recovery, thus enabling assessment of any accumulation of effects and the recovery back to baseline. Systolic, diastolic and mean arterial blood pressure, heart rate, lead II ECG and core body temperature were recorded continuously. The PR, QRS and QT intervals of the ECG were measured, and the QT interval was corrected for changes in heart rate using the method of Van de Water (QTcV).

5-HT3A/B receptors = molecular target: T1, 5-HT3A/B receptors (Homo sapiens, UniProt O95264+P46098); experiment: Functional potency at recombinant human receptors in vitro; type: cell-based
T1 construct: expressed in transfected cells
T1 sequence (P46098 24-478): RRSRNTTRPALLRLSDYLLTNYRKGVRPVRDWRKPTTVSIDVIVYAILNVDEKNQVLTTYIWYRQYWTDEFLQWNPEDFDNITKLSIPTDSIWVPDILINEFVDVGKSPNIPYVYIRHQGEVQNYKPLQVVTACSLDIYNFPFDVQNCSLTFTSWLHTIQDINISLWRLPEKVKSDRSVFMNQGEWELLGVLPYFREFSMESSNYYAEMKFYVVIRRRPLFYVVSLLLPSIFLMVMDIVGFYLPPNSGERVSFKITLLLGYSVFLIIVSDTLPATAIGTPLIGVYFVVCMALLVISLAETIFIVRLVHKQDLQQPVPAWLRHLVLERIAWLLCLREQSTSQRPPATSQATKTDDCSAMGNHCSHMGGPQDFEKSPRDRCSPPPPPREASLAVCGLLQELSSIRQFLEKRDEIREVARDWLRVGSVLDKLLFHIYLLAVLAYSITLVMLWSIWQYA
T1 sequence (O95264 22-441): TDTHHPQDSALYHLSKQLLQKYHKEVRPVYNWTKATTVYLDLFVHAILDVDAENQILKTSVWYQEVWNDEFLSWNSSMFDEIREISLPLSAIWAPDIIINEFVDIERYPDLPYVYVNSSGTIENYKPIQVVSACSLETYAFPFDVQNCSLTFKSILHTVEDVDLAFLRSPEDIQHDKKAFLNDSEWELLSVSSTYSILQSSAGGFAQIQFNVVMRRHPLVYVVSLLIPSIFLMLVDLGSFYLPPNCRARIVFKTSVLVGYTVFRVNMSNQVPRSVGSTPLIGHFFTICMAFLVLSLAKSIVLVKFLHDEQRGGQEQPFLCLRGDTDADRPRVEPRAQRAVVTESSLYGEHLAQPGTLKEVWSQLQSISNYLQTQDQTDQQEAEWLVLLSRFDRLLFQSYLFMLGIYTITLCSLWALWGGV

## c1cnc2c(c1)C[C@@]1(CN3CCC1CC3)O2 [AZD0328, (R)-Spiro[1-azabicyclo[2.2.2]octane-3,2′(3′H)-furo[2,3-b]pyridine]]
Ames test
  Mutagenicity / genotoxicity: not genotoxic; also recorded: not mutagenic
[1]
  Tmax: 18 to 60 min
FFX rats
  Hippocampal LTP: ineffective
Dogs [2]
  Dose with slight QT prolongation (ECG): ≥ 8.6 mg/kg
Rhesus monkeys; four of nine monkeys improved at middle doses
  Duration of improved performance after a single dose: more than one month
Rhesus monkeys; rhesus monkeys
  Lower doses with no effect or transient impairment: ≥ 0.00016 mg/kg
Rhesus monkeys; rhesus monkeys, 0.016 mg/kg
  Percent correct responses: non-significant increase
Rats [3]
  Dose without effect on locomotor activity: up to 129.8 mg/kg
Pgp transporter
  Pgp mediated digoxin transport: did not significantly inhibit
Rats [4]
  Target organ pathology (kidney): vacuolation of the tubular cells
Dogs [5]; any dose level, 7 or 1 day dosing
  Body temperature, PR or QRS interval: no effect
Dogs [5]; oral gavage
  BP and/or HR: increased at all doses.
Dogs [5]; single doses 17.3 and 34.6 mg/kg (mid and high dose groups)
  Emesis: frequent vomiting; also recorded: severe emesis. BP and/or HR
5-HT3A/B receptors
  Functional potency α7 versus 5-HT3A/B: equipotent
